This note sets out measurements from patent US20150258104A1, “USE OF N[…] THE TREATMENT OF PAIN” (DemeRX, Inc., priority 2014, published 2015).

Molecules are shown by their SMILES.

The term CL/F denotes clearance divided by bioavailability, as obtained after extravascular dosing. What is called AUC is concentration integrated over time. High values mean more exposure, low ones less exposure. As a reminder, the AUC(0-t) is the area under the concentration-time curve up to a stated or last time point. Read a high AUC(0-t) as more exposure. The term Cmax denotes the maximum level reached in the sampled fluid or tissue. In general, Tmax refers to the time from dosing to the highest level. As a reminder, the half-life is how long it takes for the measured level to halve. Read a high half-life as slow loss. Broadly, the Vd/F is the apparent distribution volume after extravascular dosing.

Data set [1] in a line: Pharmacokinetics of noribogaine in healthy volunteers, ascending single oral dose (plasma). As to conditions: mean, n = 6; for CL/F: fasted, plasma.
Data set [2] is described as follows: Cold pressor test in healthy volunteers. It is filed as in vivo, human. On the procedure: Analgesic effect was assessed based on duration of hand immersion in ice water and on visual analog scale (VAS) pain scores upon hand removal from the water bath.
(§1) Safety and tolerability of noribogaine were tested in the group of volunteers from Example 1. […] Safety evaluations included clinical monitoring, recording of adverse events (AEs), safety laboratory tests, vital signs, ECG telemetry from −2 h to 6 h after dosing, and 12-lead electrocardiograms (ECGs) up to 216 hours post-dosing.

Data set [3] can be described thus: Pharmacokinetics in opioid-dependent patients, Phase IB study, single dose. The note with it: human, serum; for half-life / Vd/F: opioid-dependent patients.
The nature of data set [4]: Efficacy in opioid-dependent patients: time to resumption of OST and withdrawal scales (COWS, SOWS, OOWS). It is filed as in vivo, human. As to the method:
The efficacy of noribogaine in humans was evaluated in opioid-dependent participants in a randomized, placebo-controlled, double-blind trial. […] See U.S. application Ser. No. 14/214,157, filed Mar. 14, 2014 and Ser. No. 14/346,655, filed Mar. 21, 2014, which are incorporated herein by reference in their entireties.
Three cohorts of nine (9) subjects (6 administered noribogaine and 3 administered placebo in each cohort) were evaluated for tolerability, pharmacokinetics, and efficacy. Cohort 1 received a single dose of 60 mg noribogaine or placebo. Cohort 2 received a single dose of 120 mg noribogaine or placebo. Cohort 3 received a single dose of 180 mg noribogaine or placebo. […] Headaches were frequent in the placebo and 60 mg noribogaine treatment groups, but were attenuated in the 120 mg and 180 mg dose groups.
Patients were evaluated based on the Clinical Opiate Withdrawal Scale (COWS), Subjective Opiate Withdrawal Scale (SOWS), and Objective Opiate Withdrawal Scale (OOWS) scoring systems over the period of time between administration of noribogaine (or placebo) until resumption of OST. These scales are outlined in Guidelines for the Psychosocially Assisted Pharmacological Treatment of Opioid Dependence, World Health Organization, Geneva (2009), Annex 10, which is incorporated herein by reference in its entirety. The scales measure the intensity of withdrawal symptoms, based on clinical, subjective, and objective indicia.

Data set [5] is described as follows: Safety and tolerability of noribogaine in healthy humans. In kind it is in vivo, human. As to the method:
(§2) Pulse oximetry and capnography data were collected continuously using a GE Carescape B650 monitoring system from 2 hours prior to dosing and until six hours after dosing, and thereafter at 12, 24, 48 and 72 hours post-dosing. […] Pupillary miosis was assessed by pupillometry.
as §1

Data set [6] is described as follows: Pupillometry (pupillary miosis) in healthy volunteers. In kind it is in vivo, human. The note with it: 3-60 mg, p>0.9. On the procedure:
as §2
Summary statistics (means, standard deviations, and coefficients of variation) were determined for each dose group for safety laboratory test data, ECG and pharmacokinetic parameters, and pharmacodynamic variables. Categorical variables were analysed using counts and percentages. Dose-proportionality of AUC and Cmax was assessed using linear regression. The effect of dose on pharmacodynamic parameter values over time was assessed using two-factor analysis of variance (ANOVA). Pairwise comparisons (with Tukey-Kramer adjustment) between each dose group to the placebo were conducted at each time point using the least squares estimates obtained from the ANOVA, using SAS Proc Mixed (SAS ver 6.0).

Data set [7] can be described thus: Treatment emergent adverse events in opioid-dependent patients.
Setting [8] is: 60 mg, mean ± SD, Cohort 1 (60 mg).
[9] abbreviates: 120 mg, range, Cohort 2 (120 mg).
Where [10] appears, read: 180 mg, range, Cohort 3 (180 mg).
[11] abbreviates: metabolite in plasma after single oral 30 mg noribogaine.
Where [12] appears, read: metabolite in plasma after single oral 60 mg noribogaine.

As for `CC[C@H]1CC2C[C@H]3c4[nH]c5ccc(O)cc5c4CCN(C2)C13` [noribogaine], the CL/F in data set [1] (single oral 3 mg) amounted to 41.4 L/h; in data set [1] (single oral 10 mg) it was 42.3 L/h; in data set [1] (single oral 30 mg), 46.9 L/h; in data set [1] (single oral 60 mg), 34.0 L/h. Further, the “duration of hand immersion, each dose group versus placebo (ANOVA)” value in data set [2] (ice water, p>0.9) was “no statistically significant differences”. The “VAS pain scores, each dose group versus placebo (ANOVA)” value in data set [2] (upon hand removal, p=0.17) is “no statistically significant differences”. Further, the values for the AUC in data set [3] (60 mg), in data set [3] (120 mg) and in data set [3] (180 mg) were 1120 to 2550 ng·h/mL, 1600 to 5770 ng·h/mL and 3730 to 12300 ng·h/mL, respectively. In addition, the AUC(0-t) in data set [3] (60 mg) is 1090 to 2530 ng·h/mL; in data set [3] (120 mg), 1560 to 5640 ng·h/mL; in data set [3] (180 mg), 3720 to 10400 ng·h/mL. Besides, the Cmax in data set [3] (60 mg) was in the range of 41.3 to 113 ng/mL; in data set [3] (120 mg), 139 to 230 ng/mL; in data set [3] (180 mg), 205 to 338 ng/mL. The figures for the time of peak concentration (Tmax) in data set [3] (60 mg), in data set [3] (120 mg) and in data set [3] (180 mg) were 2.5 to 5 h, 0.98 to 4.02 h and 3 to 8 h, respectively. Moreover, the half-life in data set [3] (setting [8]) was 29.3 ± 7.28 h; in data set [3] (60 mg, range, Cohort 1 (60 mg)), 18.3 to 37.3 h; in data set [3] (setting [9]), 21.9 to 48.3 h; in data set [3] (setting [10]), 19.3 to 34.9 h. In addition, the Vd/F is 1440 ± 854 L in data set [3] (setting [8]); 620 to 2770 L in data set [3] (60 mg, range, Cohort 1 (60 mg)); 824 to 5240 L in data set [3] (setting [9]); 581 to 1610 L in data set [3] (setting [10]). For the same molecule, in data set [4] (120 mg), the “withdrawal symptoms (COWS, OOWS, SOWS), first six hours after dosing” value is “fewer withdrawal symptoms than the other patients”. In addition, the “time to resumption of OST, compared with untreated patients” value in data set [4] (180 mg, also longer than 60 mg group) is greater than 7 h. The “withdrawal symptoms (COWS, OOWS, SOWS), noribogaine versus placebo” value in data set [4] (60, 120, 180 mg) was “Patients administered placebo generally experienced more withdrawal symptoms than patients who were administered noribogaine”. In addition, the adverse events reported result is recorded as “five” in data set [5] (3 mg dose group, by two subjects); “one” in data set [5] (10 mg dose group, single subject); “one” in data set [5] (30 mg dose group, single subject). Besides, the “intensity of adverse events” value in data set [5] (all dose groups, all resolved prior to study completion) is “mild-moderate”. The “pupil diameter, each dose group versus placebo (ANOVA, baseline adjusted)” value in data set [6] is on record as “no statistically significant differences”. Further, the headaches result in data set [7] (60 mg treatment group) was “frequent”; in data set [7] (120 mg and 180 mg dose groups), “attenuated”.

Turning to `CC[C@H]1C[C@@H]2C[C@H]3c4[nH]c5ccc(OC6OC(C(=O)O)C(O)C(O)C6O)cc5c4CCN(C2)[C@@H]13` (stereo partly shown) [noribogaine glucuronide], in data set [1] (setting [11]), the AUC0-216 is 25.7 ng·h/mL, the “AUC0-∞” value worked out at 25.8 ng·h/mL, the Cmax is 1.8 ng/mL and the time to peak (Tmax) was 3.0 h. In addition, the t1/2 in data set [1] (setting [11]) stood at 20.6 h. Also, in data set [1] (setting [12]), the AUC0-216 was found to be 65.0 ng·h/mL, the “AUC0-∞” value worked out at 67.1 ng·h/mL, the Cmax turned out to be 4.1 ng/mL and the Tmax came to 3.8 h. Also, the t1/2 in data set [1] (setting [12]) worked out at 23.1 h.
